Where two headings read alike, the source gives them in different places.
Experiments:
[1] = test system: bloodstream forms of T. b. brucei (427-221a clone); assay: microbe, parasite or virus in culture; conditions: for GI50: Trypanosoma brucei, 72 h, read-out: T. brucei GI50, bloodstream forms, 72 h total (24 h + 48 h with resazurin), mean ± SD of three independent experiments
Procedure: (§1) The trypanocidal and cytotoxic activities of the newly synthesized IVR bioconjugates and their conjugation partners were determined for bloodstream forms of T. brucei brucei and human myeloid HL-60 cells in vitro using the resazurin cell viability assay as previously described.
(§2) Test compounds were assayed at 10-fold dilutions ranging from 100 μM to 1 nM in the presence of 0.9% DMSO. Controls were grown in the culture medium containing only 0.9% DMSO. The assays were cultured in an incubator at 37 °C in a humidified atmosphere containing 5% CO2. After 24 h incubation, 20 μL of 0.5 mM resazurin (prepared in sterile PBS) was added, and the cultures were grown for another 48 h. Then, the proliferation of the cells was determined by measuring the absorbance at 570 nm (test wavelength) and 630 nm (reference wavelength) using a microplate reader.

[2] = test system: human promyelocytic leukemia HL-60 cells; assay: Cytotoxic activity, resazurin cell viability assay; assay type: cell-based; conditions: 72 h total (24 h + 48 h with resazurin), mean ± SD of three independent experiments
Procedure: as §1, §2

[3] = test system: A549, human lung cancer cell line; assay: Antiproliferative activity, MTT assay; assay type: cell-based; conditions: for IC50: Homo sapiens, A549, 72 h, MTT, mean ± SD; for A549 SI: SI = IC50 HaCaT/IC50 A549
Procedure: (§3) Additionally, to assess the selectivity of these compounds toward cancer cells, we included an immortalized keratinocyte cell line from adult human skin (HaCaT) in the antiproliferative activity tests. Doxorubicin served as the reference anticancer drug.
(§4) The culture media were enriched with 10% fetal bovine serum (FBS, Sigma-Aldrich, St. Louis, MO, USA), 20 mM HEPES (Biowest, Nuaillé, France), and antibiotics (100 U/mL penicillin and 100 μg/mL streptomycin) obtained from Gibco (Grand Island, NY, USA). The cells were maintained in a humidified incubator at 37 °C with 5% CO2 until they reached 80–90% confluence, after which they were used for further experiments.
(§5) To assess the cytotoxicity, the cells (0.5 × 10^4/well) were plated in 96-well plates and allowed to adhere for 24 h. The MTT (3-(4,5-dimethylthiazol-2-yl)-2,5-diphenyltetrazolium bromide) assay was used to evaluate the cytotoxic effects of IVR bioconjugates on all tested cell lines. After 24 h incubation, cells were exposed to varying concentrations (1 to 100 μM) of the test compounds for 72 h. Following the treatment, the medium was discarded, and a 0.5 mg mL^–1 MTT solution was added to each well and incubation was continued for another 4 h. Mitochondrial enzyme activity facilitated the formation of formazan crystals, which were subsequently dissolved in DMSO-isopropanol (1:1, v/v), producing a violet-colored solution. A 100 μL aliquot of this solution was transferred to the well, and absorbance was recorded at 570 nm using a MultiscanGo spectrophotometer (ThermoFisher Scientific, Carlsbad, CA, USA).
(§6) Cytotoxicity was quantified by comparing the absorbance of the treated cells to that of untreated controls using the formula: [A]/[B] × 100, where [A] represents the absorbance of the treated sample and [B] corresponds to the absorbance of the control sample. A decrease in MTT levels reflects a decrease in cell viability.

[4] = test system: HCT-116, human primary colon cancer cell line; assay: Antiproliferative activity, MTT assay; assay type: cell-based; conditions: for IC50: Homo sapiens, HCT-116, 72 h, MTT, mean ± SD; for HCT-116 SI: SI = IC50 HaCaT/IC50 HCT-116
Procedure: as §3, §4, §5, §6

[5] = test system: MDA-MB-231, human triple-negative breast cancer cell line; assay: Antiproliferative activity, MTT assay; assay type: cell-based; conditions: for IC50: Homo sapiens, MDA-MB-231, 72 h, MTT, mean ± SD; for MDA-MB-231 SI: SI = IC50 HaCaT/IC50 MDA-MB-231
Procedure: as §3, §4, §5, §6

[6] = test system: PC3, human metastatic prostate cancer cell line; assay: Antiproliferative activity, MTT assay; assay type: cell-based; conditions: for IC50: Homo sapiens, 72 h, MTT, mean ± SD; for PC3 SI: SI = IC50 HaCaT/IC50 PC3
Procedure: as §3, §4, §5, §6

[7] = test system: HaCaT, human immortalized keratinocyte cell line; assay: Cytotoxicity toward normal cells, MTT assay; assay type: cell-based; conditions: 72 h, mean ± SD
Procedure: as §3, §4, §5, §6

| Structure (SMILES) | selectivity GI50 ratio ([1]; GI50(HL-60)/GI50(T. brucei)) | GI50 [1] [µM] | GI50 [2] [µM] | IC50 [3] [µM] | A549 SI [3] | IC50 [4] [µM] | HCT-116 SI [4] | IC50 [5] [µM] | MDA-MB-231 SI [5] | IC50 [6] [µM] | PC3 SI [6] | IC50 [7] [µM] | selectivity GI50 ratio [1] |
| --- | --- | --- | --- | --- | --- | --- | --- | --- | --- | --- | --- | --- | --- |
| C[C@H]1[C@H](OC(=O)CCC(=O)O)O[C@@H]2O[C@@]3(C)CC[C@H]4[C@H](C)CC[C@@H]1[C@@]24OO3 [artesunate, reference compound] | 8.6 | 3.6 ± 0.2 | 30.8 ± 9 | 24 ± 6.9 | 0.2 | 37.8 ± 4.2 | 0.2 | 12.6 ± 3.9 | 0.5 | 48.5 ± 5.7 | 0.1 | 5.7 ± 0.1 |  |
| Cc1cn([C@H]2C[C@H](N=[N+]=[N-])[C@@H](CO)O2)c(=O)[nH]c1=O [azidothymidine, reference compound] | >5.2 | > 10 | > 100 | 72.1 ± 11.6 | >1.4 | 60.2 ± 9.7 | >1.7 | 52.2 ± 4.1 | >1.9 | 64.3 ± 3.7 | >1.6 | > 100 |  |
| C=C(C)[C@@H]1CC[C@]2(C(=O)O)CC[C@]3(C)[C@H](CC[C@@H]4[C@@]5(C)CC[C@H](O)C(C)(C)[C@@H]5CC[C@]43C)[C@@H]12 [betulinic acid, reference compound] | 2.8 | 15.4 ± 4.4 | 42.5 ± 2.5 | 98.1 ± 3.1 | >1.0 | 80.1 ± 6.1 | >1.2 | 46.5 ± 4.6 | >2.2 | 66.6 ± 2.3 | >1.5 | > 100 |  |
| C=C[C@H]1CN2CC[C@H]1C[C@H]2[C@H](O)c1ccnc2ccccc12 [cinchonidine, reference compound] | >47.6 | 2.1 ± 0.6 | > 100 | > 100 | ∼1.0 | 87.1 ± 12.1 | >1.1 | > 100 | ∼1.0 | 86.7 ± 3.9 | >1.2 | > 100 |  |
| C=C[C@H]1C[N@@]2CC[C@H]1C[C@@H]2[C@@H](O)c1ccnc2ccccc12 [cinchonine, reference compound] | >58.8 | 1.7 ± 0.6 | > 100 | > 100 | ∼1.0 | 78.2 ± 5.8 | >1.3 | 65.3 ± 2.8 | >1.5 | 74.3 ± 5.4 | >1.3 | > 100 |  |
| CC[C@H](C)[C@H]1O[C@]2(CC[C@@H]1C)C[C@@H]1C[C@@H](C/C=C(\C)[C@@H](O[C@H]3C[C@H](OC)[C@@H](O[C@H]4C[C@H](OC)[C@@H](O)[C@H](C)O4)[C@H](C)O3)[C@@H](C)/C=C/C=C3\CO[C@@H]4[C@H](O)C(C)=C[C@@H](C(=O)O1)[C@]34O)O2 [compound 1, Ivermectin] |  |  | 30 ± 1.1 | 7.2 ± 1.4 | 1.8 | 9.9 ± 1.1 | 1.3 | 8.7 ± 3.2 | 1.4 | 33.9 ± 6.3 | 0.4 | 12.6 ± 4.3 | 10.3 |
| C=C[C@H]1CN2CC[C@H]1C[C@@H]2[C@@H](OC(=O)O[C@@H]1/C(C)=C/C[C@@H]2C[C@@H](C[C@]3(CC[C@H](C)[C@@H]([C@@H](C)CC)O3)O2)OC(=O)[C@@H]2C=C(C)[C@@H](O)[C@H]3OC/C(=C\C=C\[C@@H]1C)[C@]32O)c1ccnc2ccc(OC)cc12 [compound 5, Ivermectin–Quinidine Conjugate] | 17.6 | 1.3 ± 0.4 | 22.9 ± 11.2 | 42.3 ± 0.5 | 0.4 | 13.8 ± 3.5 | 1.1 | 10.1 ± 1.4 | 1.5 | 12.4 ± 2.1 | 1.2 | 14.9 ± 1.6 |  |
| C=C[C@H]1CN2CC[C@H]1C[C@H]2[C@H](OC(=O)O[C@@H]1/C(C)=C/C[C@@H]2C[C@@H](C[C@]3(CC[C@H](C)[C@@H]([C@@H](C)CC)O3)O2)OC(=O)[C@@H]2C=C(C)[C@@H](O)[C@H]3OC/C(=C\C=C\[C@@H]1C)[C@]32O)c1ccnc2ccccc12 [compound 7, Ivermectin–Cinchonidine Conjugate] | 20.5 | 2.3 ± 0.3 | 47.2 ± 3.7 | 13.6 ± 1.1 | 3.7 | 20.1 ± 3.7 | 2.5 | 22.4 ± 1.2 | 2.2 | 7.2 ± 3.8 | 7.0 | 50.3 ± 4.9 |  |
| CC[C@H](C)[C@H]1O[C@]2(CC[C@@H]1C)C[C@@H]1C[C@@H](C/C=C(\C)[C@@H](OC(=O)N[C@H]3CCc4cc(OC)c(OC)c(OC)c4-c4ccc(SC)c(=O)cc43)[C@@H](C)/C=C/C=C3\CO[C@@H]4[C@H](O)C(C)=C[C@@H](C(=O)O1)[C@]34O)O2 [compound 8] | 7.2 | 1.4 ± 0.5 | 10.1 ± 4.9 | 12.4 ± 2.6 | >8.1 | 7.5 ± 1.6 | >13.3 | 6.6 ± 0.6 | >15.2 | 85.1 ± 9.8 | >1.2 | > 100 |  |
| COc1cccc2c1C(=O)c1c(O)c3c(c(O)c1C2=O)C[C@@](O)(C(=O)CO)C[C@@H]3O[C@H]1C[C@H](N)[C@H](O)[C@H](C)O1 [doxorubicin, reference compound] |  |  |  | 0.63 ± 0.2 |  | 0.6 ± 0.02 |  | 1.83 ± 0.1 |  | 0.6 ± 0.02 |  | 0.29 ± 0.1 |  |
| CC[n+]1c(-c2ccccc2)c2cc(N)ccc2c2ccc(N)cc21 [ethidium bromide, reference compound] | 202 |  | 9.3 ± 2.6 |  |  |  |  |  |  |  |  |  |  |
| Cc1ccc(C(=O)Nc2ccc(S(=O)(=O)O)c3cc(S(=O)(=O)O)cc(S(=O)(=O)O)c23)cc1NC(=O)c1cccc(NC(=O)Nc2cccc(C(=O)Nc3cc(C(=O)Nc4ccc(S(=O)(=O)O)c5cc(S(=O)(=O)O)cc(S(=O)(=O)O)c45)ccc3C)c2)c1 [suramin, reference compound] |  | 0.039 ± 0.004 | > 100 |  |  |  |  |  |  |  |  |  |  |

From article PMC12223813, “Antiproliferative and Trypanocidal Activity of Ivermectin Bioconjugates” (ACS Omega, 2025)
